The values below are quoted from earlier work in patent US12514832B2, “Methods for using low-dose colchicine after myocardial infarction” (INSTITUT DE CARDIOLOGIE DE MONTREAL, priority 2019, dated 2026).

The conditions of data set [1]: CIRT; cited from earlier work.
Another data set deals with interleukin-13 (Homo sapiens, UniProt P01584). As to conditions: CANTOS; cited from earlier work.

For `CN(Cc1cnc2nc(N)nc(N)c2n1)c1ccc(C(=O)N[C@@H](CCC(=O)O)C(=O)O)cc1` [methotrexate], in data set [1], the “effect on cardiovascular outcomes or plasma markers of inflammation (in words)” value is “did not affect cardiovascular outcomes or plasma markers of inflammation”.
As for “canakinumab: injectable monoclonal antibody; anti-inflammatory studied in CANTOS”, the “incidence of fatal infections versus placebo (in words)” value with interleukin-13 was “slightly higher incidence of fatal infections”.
